Test results taken from US8742110B2, “Spiroxazolidinone compounds” (Merck Sharp & Dohme Corp., priority 2010, dated 2014).
Structures can show the parent of a compound that is named as a salt.

Molecular target: SSTR5 (Homo sapiens (Human), UniProt P35346)
Assay: SSTR5 binding assay
Conditions: CHO-K1 membranes expressing cloned human SSTR5
Summary of the method: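 Competition binding on membranes from CHO-K1 cells stably expressing cloned human receptor, using radiolabeled somatostatin in 50 mM Tris-HCl pH 7.8 with EGTA, MgCl2 and protease inhibitors. Unlabeled compounds tested from 0.01 nM to 10,000 nM.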

SSTR5, sequence (P35346 whole entry): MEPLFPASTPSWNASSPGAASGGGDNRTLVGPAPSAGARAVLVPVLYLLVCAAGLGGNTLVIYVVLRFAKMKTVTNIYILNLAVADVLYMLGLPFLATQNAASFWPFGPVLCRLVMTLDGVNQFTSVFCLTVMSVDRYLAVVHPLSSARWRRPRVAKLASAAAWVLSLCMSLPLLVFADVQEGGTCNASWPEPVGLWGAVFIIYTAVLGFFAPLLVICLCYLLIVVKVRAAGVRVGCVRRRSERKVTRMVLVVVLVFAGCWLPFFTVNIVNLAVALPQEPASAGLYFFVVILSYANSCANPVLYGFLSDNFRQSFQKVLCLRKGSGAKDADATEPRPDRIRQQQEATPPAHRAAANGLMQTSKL

IC50 [µM]	SMILES
0.0691	O=C(O)c1ccc(N2CC3(CCN(Cc4sc(-c5ccccc5)nc4-c4ccccc4)CC3)OC2=O)cc1 [Example 6-32, 4-{8-[(2,4-Diphenyl-1,3-thiazol-5-yl)methyl]-2-oxo-1-oxa-3,8-diazaspiro[4.5]dec-3-yl}benzoic acid, TFA salt]
0.153	Cc1nc(-c2ccccc2)c(CN2CCC3(CC2)CN(c2ccc(C(=O)O)cc2)C(=O)O3)s1 [Example 6-33, 4-{8-[(2-Methyl-4-phenyl-1,3-thiazol-5-yl)methyl]-2-oxo-1-oxa-3,8-diazaspiro[4.5]dec-3-yl}benzoic acid, TFA salt]
0.086	O=C(O)c1ccc(N2CC3(CCN(Cc4nc(-c5ccccc5)oc4-c4ccccc4)CC3)OC2=O)cc1 [Example 6-34, 4-{8-[(2,5-Diphenyl-1,3-oxazol-4-yl)methyl]-2-oxo-1-oxa-3,8-diazaspiro[4.5]dec-3-yl}benzoic acid, TFA salt]
0.00174	CC(C)(C)c1nc(-c2cc(F)c(F)cc2F)c(CN2CCC3(CC2)CN(c2ccc(C(=O)O)cc2)C(=O)O3)s1 [Example 6-35, 4-(8-{[2-tert-Butyl-4-(2,4,5-trifluorophenyl)-1,3-thiazol-5-yl]methyl}-2-oxo-1-oxa-3,8-diazaspiro[4.5]dec-3-yl)benzoic acid, TFA salt]
1.2	O=C(O)c1ccc(N2CC3(CCN(Cc4nc5ccccn5c4-c4cc(F)c(F)cc4F)CC3)OC2=O)cc1 [Example 6-36, 4-(2-Oxo-8-{[3-(2,4,5-trifluorophenyl)imidazo[1,2-a]pyridin-2-yl]methyl}-1-oxa-3,8-diazaspiro[4.5]dec-3-yl)benzoic acid, TFA salt]
0.0134	O=C(O)c1ccc(N2CC3(CCN(Cc4c(-c5ccccc5)nc5ccccn45)CC3)OC2=O)cc1 [Example 6-37, 4-{2-Oxo-8-[(2-phenylimidazo[1,2-a]pyridin-3-yl)methyl]-1-oxa-3,8-diazaspiro[4.5]dec-3-yl}benzoic acid, TFA salt]
1.01	Cc1nc2ccccn2c1CN1CCC2(CC1)CN(c1ccc(C(=O)O)cc1)C(=O)O2 [Example 6-38, 4-{8-[(2-Methylimidazo[1,2-a]pyridin-3-yl)methyl]-2-oxo-1-oxa-3,8-diazaspiro[4.5]dec-3-yl}benzoic acid, TFA salt]
0.442	Cc1cccn2c(-c3cc(F)c(F)cc3F)c(CN3CCC4(CC3)CN(c3ccc(C(=O)O)cc3)C(=O)O4)nc12 [Example 6-39, 4-(8-{[8-Methyl-3-(2,4,5-trifluorophenyl)imidazo[1,2-a]pyridin-2-yl]methyl}-2-oxo-1-oxa-3,8-diazaspiro[4.5]dec-3-yl)benzoic acid, TFA salt]
